{
  "source": "patent US12251373B2",
  "about": "“Compounds and methods of treating retinal degeneration” (CASE WESTERN RESERVE UNIVERSITY, priority 2017, dated 2025)",
  "key": {"[1]": {"tested_on": "C57BL/6 mice", "experiment": "Bw measurements, long-term toxicity by daily i.p. injections", "type": "in vivo", "settings": "100 or 200 mg kg−1 bw daily i.p. Day 14 to 38, vs DMSO", "experimental": "To estimate the long-term toxicity of YC-001 in mice, we administered YC-001 to C57BL/6 mice by daily i.p. injections from Day 14 to 38 after birth with one of two doses, either 100 mg kg^−1 or 200 mg kg^−1 bw. Equivalent volumes of DMSO were injected into control groups. Bws of treated mice were measured daily. Each dosage group contained 3 mice including males and females."}, "[2]": {"target": "T1, ovine COX-1 (Ovis aries, UniProt P05979)", "T1 construct": "purchased Abcam", "T1 sequence (P05979 25-600)": "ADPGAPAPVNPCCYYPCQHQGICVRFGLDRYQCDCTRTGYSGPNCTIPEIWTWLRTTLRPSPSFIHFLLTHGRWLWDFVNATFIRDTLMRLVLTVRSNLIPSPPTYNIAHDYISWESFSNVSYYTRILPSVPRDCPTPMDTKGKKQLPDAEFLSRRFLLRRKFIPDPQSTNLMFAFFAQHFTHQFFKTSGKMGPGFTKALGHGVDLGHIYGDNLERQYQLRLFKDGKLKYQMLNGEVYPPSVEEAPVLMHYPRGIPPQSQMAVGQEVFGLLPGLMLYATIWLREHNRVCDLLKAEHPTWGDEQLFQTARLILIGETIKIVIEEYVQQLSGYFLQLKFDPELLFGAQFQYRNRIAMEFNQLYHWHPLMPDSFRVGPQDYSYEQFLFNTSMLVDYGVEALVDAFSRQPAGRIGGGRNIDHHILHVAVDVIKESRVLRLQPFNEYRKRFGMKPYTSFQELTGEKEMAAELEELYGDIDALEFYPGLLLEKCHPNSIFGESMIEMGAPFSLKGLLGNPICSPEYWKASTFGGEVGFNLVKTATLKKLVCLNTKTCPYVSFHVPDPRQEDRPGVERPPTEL", "experiment": "COX-1 activity assay", "type": "biochemical", "settings": "up to 80 μM of YC-001", "experimental": "The effect of the compound YC-001 on cyclooxygenase 1 (COX-1) activity was evaluated using the COX1 Inhibitor Screening Kit (Abcam, Cambridge, MA, USA) according to the manufacture's protocol. Briefly, the assay is based on the fluorometric detection of Prostaglandin G2, the intermediate product generated by the COX-1 enzyme. COX reaction mix included ovine COX-1, COX probe and COX cofactor and was prepared in a 96-well plate. YC-001 working solutions were dissolved in DMSO, and then mixed with COX Reaction Mix to the final concentrations (80, 40, 20, 10, 5, 2.5, 1.25, 0.625, 0.312, 0.156, 0.078 and 0.039 μM). Equivalent volume of DMSO was used as vehicle control and SC560 was used as a positive control. All controls and samples were measured in triplicate. Then Arachidonic Acid was added into each well to initiate all the reactions at the same time. The fluorescence was measured at Ex/Em=535/587 nm in a kinetic mode for 15 min at 25° C. Five time points were chosen in the linear range of the plot and the corresponding values for the fluorescence were used to calculate the slope of the linear regression equation. Relative COX-1 activity was calculated as Equation 5: […]"}, "[3]": {"experiment": "Metabolic stability in human liver microsomes", "type": "in vitro ADME", "settings": "5 μM, with NADPH, vs verapamil", "experimental": "A standard metabolic stability assay was performed in the presence of mouse or human liver microsomes. YC-001 (5 μM) was incubated with the microsomes (0.125 mg mL^−1) resuspended in 0.2 mL of PBS buffer, pH 7.4 composed of 10 mM Na2HPO4, 1.8 mM KH2PO4, 137 mM NaCl, and 2.7 mM KCl. The enzymatic reaction to produce oxidized metabolites was initiated by addition of NADPH (1 mM). Samples were incubated at 37° C. for up to 240 min. Incubation without the cofactor was conducted in parallel to assess NADPH-independent clearance. The reactions were stopped with 0.2 mL of methanol followed by 0.3 mL chloroform. Residual YC-001 was extracted by vigorous shaking. To facilitate phase separation, the samples were spun down for 2 min, 15,000×g. The chloroform fraction was collected, dried down, and the extracted organic compounds were redissolved in 0.2 mL of methanol. To quantify YC-001, the samples were injected onto an Eclipse XDB-C18 column (4.6×150 mm, 5 μm) (Agilent Technologies) equilibrated with solvent composed of 30% acetonitrile in water (v/v), and 0.1% formic acid. YC-001 was eluted in a gradient of acetonitrile in water (30-100%) developed within 15 min at a flow rate of 1 mL min^−1, detected at 350 nm, and quantified by correlating peak areas with known quantities of an original synthetic standard. […]"}},
  "data": [
    {"smiles": "O=C1OCC(c2ccc(Cl)s2)=C1c1cccs1", "note": "[YC-001]", "values": [
      {"measurement": "behavioral or bw growth changes", "setting": "[1]", "result": "no obvious behavioral or bw growth changes"},
      {"measurement": "COX-1 enzymatic activity", "setting": "[2]", "result": "didn't see changes"},
      {"measurement": "initial clearance in liver microsomes", "setting": "[3]", "result": "even higher initial clearance"}
    ]}
  ]
}
